# Reference: patent US20090182014A1, “INSECTICIDAL COMPOSITIONS COMPRISING COMPOUNDS HAVING INHIBITORY ACTIVITY VERSUS ACYL COA: CHOLESTEROL ACYLTRANSFERASE OR SALTS THEREOF AS EFFECTIVE INGREDIENTS” (priority 2003, published 2009)
# Tests used:
# [1] = tested on: acyl CoA:cholesterol acyltransferase (ACAT); assay: Assay for ACAT inhibitory activity using hepatic microsomes, cholesterol and 14C-labeled oleoyl-CoA; type: biochemical
# Experimental: In the method, ACAT activity was determined using hepatic microsomes as a source of ACAT with substrates of cholesterol and ^14C-labeled oleoyl-CoA. The radioactivity of the reaction product cholesterol ester was estimated as the ACAT activity.
# In detail, a reaction mixture was prepared as follows. […] To stabilize enzyme reaction, bovine serum albumin was added to the mixture to a final concentration of 30 μM. Then, a sample dissolved in DMSO or methanol was added to the mixture. The resulting reaction mixture was preincubated at 37° C. for 30 min. The enzyme reaction was then initiated by adding [1-^14C]-oleoyl Coenzyme A solution to a final concentration of 0.04 μCi. After 30 min of incubation at 37° C., the reaction was stopped by addition of 1 ml of an isopropanol-heptane solution. Then, 0.6 ml of n-heptane and 0.4 ml of KPB buffer were added to the terminated reaction mixture. The mixture was well mixed and allowed to stand at room temperature for 2 min. After phase separation, 200 μl of the supernatant was put into a scintillation vial. After adding 4 ml of a scintillation cocktail (Lipoluma, Lumac Co.) to the vial, the amount of synthesized cholesteryl oleate was measured with a scintillation counter (Packard Delta-200). The inhibitory activity versus ACAT was calculated according to the following Equation 1:
# Inhibitory activity (%)=[1−(T−B/C−B)]×100
# T: cpm in a test reaction mixture that contains a compound of the present invention along with an enzyme source;
# [2] = tested on: Tenebrio molitor L larvae; assay: Diet (wheat bran) assay against Tenebrio molitor L larvae: larval weight, growth, killing; type: in vivo; details: 1 mg mixed with 10 g wheat bran; for larval weight-reducing effect in T. molitor L larvae (FIG. 8): larval weight on day 3 and 7, compared with control
# Experimental: Among the present compounds with an ACAT inhibitory activity, the phenylpyropene A, B and C (Formulas 2 to 4) were tested for weight-reducing effect in larval insects. In this test, larvae of Tenebrio molitor L. was used as an experimental insect, which was obtained from the insect research lab, KRIBB, Korea. Healthy second-instar larvae (10-12 mm) of Tenebrio molitor L was selected 24 hrs before performing this test. Each of the compounds of Formulas 2 to 4 was dissolved in 10% acetone to a final concentration of 1 mg/ml and serially diluted. 1 ml of the diluted compound solution was mixed with […] of wheat bran commonly used as a diet. The resulting mixture was put into a glass petri dish (90×20 mm), and the petri dish was placed in a desiccator for about 2 hrs under pressure to remove the organic solvent. After being weighed, 10 highly mobile larvae of T. molitor L for each test set were placed in a petri dish (87×15 mm) with a filter paper disk, together with the mixture of the present compound and wheat bran. Then, the larvae were grown in at 25±±1° C. under 40-45% relative humidity with a 16-hour light/8-hours dark cycle. After 72 hrs, larval weight and diet intake were recorded every three days. This assay was performed on three replicates, and a control group was treated with 10% acetone.
# [3] = tested on: Plutella xylostella L larvae; assay: Leaf-disk bioassay against Plutella xylostella L larvae; type: in vivo; details: treated with 0.001 to 1 mg; investigated at intervals of 24 hrs; compared with control
# Experimental: Larvae of Plutella xylostella L was used as an experimental insect in this test, which was obtained from the Insect Research Lab, Korean Research Institute of Bioscience and Biotechnology (KRIBB), Oun-dong, Yusong-ku, Taejon, Korea. After being weighed accurately, a proper amount of the present compounds with an ACAT inhibitory activity were was dissolved in acetone, mixed with nine volumes of a 100 ppm Triton X-100 stock solution, and serially diluted, thus giving active compound solutions. A diet for the growth of the P. xylostella L larvae was prepared, as follows: leaves of cabbages with uniform growth were cut into leaf disks (3.0 cm in diameter), dipped in the active compound solutions for 30 sec, and dried in a hood for 60 min. Each of the active compound-treated leaf disks was put in a petri dish (55×20 mm) with a filter paper disk. Then, 10 second-instar larvae of P. xylostella L were placed on each leaf disc using a soft brush with caution not to damage the larvae, and grown in an incubator (25±1° C., 40-45% relative humidity, 16L:8D). After 24 hrs and 48 hrs, mortality was recorded. […] This leaf-disk bioassay was performed on three replicates, and LC50 (50% lethal concentration) was calculated by the Probit method developed by Finney (1982).
# [4] = hepatic microsomes as source of ACAT
# [5] = calculated from the μg/ml value and molecular weight
Compound,ACAT inhibitory activity ([1]; concentration 20 μg/ml) [%],ACAT inhibitory activity ([1]; concentration 100 μg/ml) [%],larval growth inhibition in T. molitor L larvae (FIG. 9) [2],larval weight-reducing effect in T. molitor L larvae (FIG. 8) [2],also measured
CCCCCCCC/C=C\CCCCCCCC(=O)Nc1c(OC)cc(OC)cc1OC [Formula 7],96.6,97.8,,,
CC(C)c1cccc(C(C)C)c1OC(=O)NS(=O)(=O)Oc1c(C(C)C)cccc1C(C)C [Formula 8],84.5,93.8,,,
Cc1cc(Cc2cc(C)cc(C(C)(C)C)c2O)c(O)c(C(C)(C)C)c1 [Formula 9],93.4,98.4,,,
O=C(/C=C/C=C/c1ccc2c(c1)OCO2)N1CCCCC1 [Formula 10],17.6,82.0,,,
CCCCCCCNC(=O)CCCCSC1NC(c2ccccc2)C(c2ccccc2)N1 (stereo not shown) [Formula 11],84.8,89.6,,,
CC(=O)OCC1(C)C2C[C@H](OC(C)=O)[C@@]3(C)Oc4cc(-c5ccccc5)oc(=O)c4[C@H](O)C3[C@@]2(C)CC[C@@H]1OC(C)=O (stereo partly shown) [phenylpyropene A],,,larval growth inhibition was found,lasting larval weight-reducing effect,"IC50 ([1]; calculated from the ng/ml value and molecular weight): 0.086 µM; IC50 (compound concentration to inhibit by 50% of ACAT activity) [1, 4]: 0.5 µg/mL"
CC(=O)OCC1(C)C(OC(C)=O)CC[C@@]2(C)C1CC[C@@]1(C)Oc3cc(-c4ccccc4)oc(=O)c3CC21 (stereo partly shown) [phenylpyropene B],,,,lasting larval weight-reducing effect,"IC50 [1, 5]: 12.8 µM; IC50 (ACAT activity) [1, 4]: 6.5 µg/mL"
CC(=O)OC1CC[C@@]2(C)C(CC[C@@]3(C)Oc4cc(-c5ccccc5)oc(=O)c4CC23)C1(C)C (stereo partly shown) [phenylpyropene C],,,larval growth inhibition was found,lasting larval weight-reducing effect,"IC50 [1, 5]: 16 µM; IC50 (ACAT activity) [1, 4]: 7.2 µg/mL"
CC(=O)OC[C@@]1(C)[C@@H]2C[C@H](OC(C)=O)[C@@]3(C)Oc4cc(-c5cccnc5)oc(=O)c4[C@H](O)[C@@H]3[C@@]2(C)CC[C@@H]1OC(C)=O [pyripyropene A],,,larval growth inhibition was found,,insecticidal effect against P. xylostella L larvae (FIG. 6) [3]: lasting insecticidal effect in a dose-dependant manner; T. molitor L insect killed in the larval and pupa stages [2]: most of the T. molitor L insect was killed in the larval and pupa stages
pheophorbide a,,,larval growth inhibition was found,,
